ChEMBL document CHEMBL4507285, “Data for DCP probe MRL-SYKi” (2021)

Experiments:
[1] = tested on: Tyrosine-protein kinase ABL1 (Homo sapiens), P00519 [F317I]; settings: Compound concentration 100.0 nM
[2] = tested on: Tyrosine-protein kinase ABL1 (Homo sapiens), P00519 [Y253F]; settings: Compound concentration 100.0 nM
[3] = target: Calcium/calmodulin-dependent protein kinase kinase 2 (Homo sapiens) (UniProt Q96RR4); settings: Compound concentration 100.0 nM
[4] = target: Cyclin-dependent kinase 11B (Homo sapiens) (UniProt P21127); settings: Compound concentration 100.0 nM
[5] = target: Casein kinase II subunit alpha (Homo sapiens) (UniProt P68400); settings: Compound concentration 100.0 nM
[6] = target: Epidermal growth factor receptor (Homo sapiens) (UniProt P00533); settings: Compound concentration 100.0 nM
[7] = tested on: Epidermal growth factor receptor (Homo sapiens), P00533 [UNDEFINED MUTATION]; settings: Compound concentration 100.0 nM
[8] = tested on: Epidermal growth factor receptor (Homo sapiens), P00533 [UNDEFINED MUTATION]; settings: Compound concentration 100.0 nM; remark: listed apart in the source
[9] = tested on: Epidermal growth factor receptor (Homo sapiens), P00533 [L861Q]; settings: Compound concentration 100.0 nM
[10] = target: Mitogen-activated protein kinase 6 (Homo sapiens) (UniProt Q16659); settings: Compound concentration 100.0 nM
[11] = tested on: Fibroblast growth factor receptor 3 (Homo sapiens), P22607 [G697C]; settings: Compound concentration 100.0 nM
[12] = tested on: Receptor-type tyrosine-protein kinase FLT3 (Homo sapiens), P36888 [D835V]; settings: Compound concentration 100.0 nM
[13] = target: Glycogen synthase kinase-3 alpha (Homo sapiens) (UniProt P49840); settings: Compound concentration 100.0 nM
[14] = target: Homeodomain-interacting protein kinase 4 (Homo sapiens) (UniProt Q8NE63); settings: Compound concentration 100.0 nM
[15] = target: Interleukin-1 receptor-associated kinase 1 (Homo sapiens) (UniProt P51617); settings: Compound concentration 100.0 nM
Sequence of Interleukin-1 receptor-associated kinase 1 (Homo sapiens) (P51617 whole entry, looked up): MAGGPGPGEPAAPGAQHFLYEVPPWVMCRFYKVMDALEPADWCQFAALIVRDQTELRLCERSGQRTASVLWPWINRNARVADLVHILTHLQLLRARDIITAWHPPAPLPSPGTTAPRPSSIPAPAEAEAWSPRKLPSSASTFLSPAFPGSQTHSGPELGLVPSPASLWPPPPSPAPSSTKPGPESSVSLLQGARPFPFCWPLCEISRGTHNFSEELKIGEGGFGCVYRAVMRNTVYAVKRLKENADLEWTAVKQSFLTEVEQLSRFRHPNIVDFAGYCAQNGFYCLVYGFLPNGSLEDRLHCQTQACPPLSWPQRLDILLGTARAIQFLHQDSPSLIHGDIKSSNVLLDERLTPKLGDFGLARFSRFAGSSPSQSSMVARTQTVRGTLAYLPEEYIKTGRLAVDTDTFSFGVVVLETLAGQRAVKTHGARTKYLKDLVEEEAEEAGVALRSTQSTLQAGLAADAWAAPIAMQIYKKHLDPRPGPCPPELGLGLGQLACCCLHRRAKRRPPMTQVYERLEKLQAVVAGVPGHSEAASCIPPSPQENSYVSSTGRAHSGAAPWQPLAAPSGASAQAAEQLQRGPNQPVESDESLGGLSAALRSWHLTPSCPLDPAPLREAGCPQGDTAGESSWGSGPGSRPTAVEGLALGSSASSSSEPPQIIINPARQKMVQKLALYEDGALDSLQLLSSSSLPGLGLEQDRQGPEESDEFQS

[16] = target: Tyrosine-protein kinase JAK3 (Homo sapiens) (UniProt P52333); settings: Compound concentration 100.0 nM
[17] = target: Mitogen-activated protein kinase kinase kinase kinase 4 (Homo sapiens) (UniProt O95819); settings: Compound concentration 100.0 nM
[18] = target: Mitogen-activated protein kinase kinase kinase kinase 5 (Homo sapiens) (UniProt Q9Y4K4); settings: Compound concentration 100.0 nM
Sequence of Mitogen-activated protein kinase kinase kinase kinase 5 (Homo sapiens) (Q9Y4K4 whole entry, looked up): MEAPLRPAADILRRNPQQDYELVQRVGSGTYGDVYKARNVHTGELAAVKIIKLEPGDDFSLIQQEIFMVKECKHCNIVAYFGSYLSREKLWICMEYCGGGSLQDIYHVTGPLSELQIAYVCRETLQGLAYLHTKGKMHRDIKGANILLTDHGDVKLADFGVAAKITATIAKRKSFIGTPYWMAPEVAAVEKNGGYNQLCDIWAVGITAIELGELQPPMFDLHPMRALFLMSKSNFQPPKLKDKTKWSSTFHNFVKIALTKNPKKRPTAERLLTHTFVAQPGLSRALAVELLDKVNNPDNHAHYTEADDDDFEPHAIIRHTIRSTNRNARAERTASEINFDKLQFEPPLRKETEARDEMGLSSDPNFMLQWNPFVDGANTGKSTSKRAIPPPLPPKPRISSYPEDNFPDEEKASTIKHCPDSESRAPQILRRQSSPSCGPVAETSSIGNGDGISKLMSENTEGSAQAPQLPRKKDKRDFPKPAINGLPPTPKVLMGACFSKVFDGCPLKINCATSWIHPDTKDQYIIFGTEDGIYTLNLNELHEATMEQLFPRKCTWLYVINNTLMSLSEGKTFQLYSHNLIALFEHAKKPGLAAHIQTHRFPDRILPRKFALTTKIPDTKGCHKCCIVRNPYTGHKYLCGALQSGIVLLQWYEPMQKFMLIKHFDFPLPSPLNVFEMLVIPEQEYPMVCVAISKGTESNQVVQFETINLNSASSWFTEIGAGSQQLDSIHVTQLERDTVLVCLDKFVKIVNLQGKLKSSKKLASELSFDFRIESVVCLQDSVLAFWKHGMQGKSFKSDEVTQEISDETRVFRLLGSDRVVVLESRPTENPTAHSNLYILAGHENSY

[19] = tested on: Hepatocyte growth factor receptor (Homo sapiens), P08581 [Y1235D]; settings: Compound concentration 100.0 nM
[20] = target: MAP kinase-interacting serine/threonine-protein kinase 2 (Homo sapiens) (UniProt Q9HBH9); settings: Compound concentration 100.0 nM
[21] = target: Serine/threonine-protein kinase MRCK alpha (Homo sapiens) (UniProt Q5VT25); settings: Compound concentration 100.0 nM
Sequence of Serine/threonine-protein kinase MRCK alpha (Homo sapiens) (Q5VT25 whole entry): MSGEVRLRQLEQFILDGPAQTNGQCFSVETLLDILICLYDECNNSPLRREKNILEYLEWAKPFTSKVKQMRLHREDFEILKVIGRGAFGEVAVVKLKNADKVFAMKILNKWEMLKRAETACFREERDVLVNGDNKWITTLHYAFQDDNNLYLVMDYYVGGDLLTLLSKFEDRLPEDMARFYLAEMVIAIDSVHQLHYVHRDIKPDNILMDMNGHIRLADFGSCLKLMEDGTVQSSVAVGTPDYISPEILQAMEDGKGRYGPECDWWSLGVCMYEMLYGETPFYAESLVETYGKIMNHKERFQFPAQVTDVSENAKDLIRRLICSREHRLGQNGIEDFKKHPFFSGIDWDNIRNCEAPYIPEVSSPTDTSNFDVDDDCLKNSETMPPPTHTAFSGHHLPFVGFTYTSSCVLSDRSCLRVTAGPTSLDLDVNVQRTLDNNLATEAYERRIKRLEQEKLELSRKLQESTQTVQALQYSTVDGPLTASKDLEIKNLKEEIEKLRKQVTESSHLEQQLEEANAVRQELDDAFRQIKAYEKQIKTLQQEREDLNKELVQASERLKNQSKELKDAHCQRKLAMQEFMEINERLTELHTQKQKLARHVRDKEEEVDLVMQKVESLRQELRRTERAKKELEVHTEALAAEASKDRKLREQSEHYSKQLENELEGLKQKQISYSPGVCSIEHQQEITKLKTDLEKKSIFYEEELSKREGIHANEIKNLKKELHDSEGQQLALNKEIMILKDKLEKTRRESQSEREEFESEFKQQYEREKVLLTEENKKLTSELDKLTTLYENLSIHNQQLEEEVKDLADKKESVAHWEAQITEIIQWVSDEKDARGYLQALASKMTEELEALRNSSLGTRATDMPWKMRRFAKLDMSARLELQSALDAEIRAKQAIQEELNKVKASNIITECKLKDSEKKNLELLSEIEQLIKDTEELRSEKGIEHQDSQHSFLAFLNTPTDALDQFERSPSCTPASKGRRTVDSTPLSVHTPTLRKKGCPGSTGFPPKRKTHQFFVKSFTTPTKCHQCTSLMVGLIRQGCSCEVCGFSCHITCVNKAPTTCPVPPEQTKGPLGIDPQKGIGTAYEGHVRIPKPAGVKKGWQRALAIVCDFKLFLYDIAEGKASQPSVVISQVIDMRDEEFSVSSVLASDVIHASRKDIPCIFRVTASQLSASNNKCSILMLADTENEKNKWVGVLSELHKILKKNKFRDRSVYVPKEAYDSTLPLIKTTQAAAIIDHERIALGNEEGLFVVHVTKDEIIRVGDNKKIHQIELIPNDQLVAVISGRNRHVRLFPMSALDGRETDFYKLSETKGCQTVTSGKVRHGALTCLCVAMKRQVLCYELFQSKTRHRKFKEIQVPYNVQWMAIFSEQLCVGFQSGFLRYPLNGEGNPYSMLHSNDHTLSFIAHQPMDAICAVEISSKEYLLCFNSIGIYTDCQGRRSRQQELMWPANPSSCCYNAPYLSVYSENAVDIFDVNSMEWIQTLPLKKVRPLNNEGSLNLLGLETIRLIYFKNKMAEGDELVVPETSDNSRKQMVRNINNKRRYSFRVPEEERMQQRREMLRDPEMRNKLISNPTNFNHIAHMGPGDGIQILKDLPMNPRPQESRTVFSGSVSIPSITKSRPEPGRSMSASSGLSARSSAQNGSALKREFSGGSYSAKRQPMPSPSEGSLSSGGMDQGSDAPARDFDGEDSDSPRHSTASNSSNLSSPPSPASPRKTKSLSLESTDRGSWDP

[22] = target: Cyclin-dependent kinase 16 (Homo sapiens) (UniProt Q00536); settings: Compound concentration 100.0 nM
[23] = tested on: Phosphatidylinositol 4,5-bisphosphate 3-kinase catalytic subunit alpha isoform (Homo sapiens), P42336 [E545A]; settings: Compound concentration 100.0 nM
[24] = target: Serine/threonine-protein kinase pim-3 (Homo sapiens) (UniProt Q86V86); settings: Compound concentration 100.0 nM
[25] = target: Phosphatidylinositol 4-phosphate 5-kinase type-1 gamma (Homo sapiens) (UniProt O60331); settings: Compound concentration 100.0 nM
[26] = target: cAMP-dependent protein kinase catalytic subunit alpha (Homo sapiens) (UniProt P17612); settings: Compound concentration 100.0 nM
[27] = target: Serine/threonine-protein kinase N1 (Homo sapiens) (UniProt Q16512); settings: Compound concentration 100.0 nM
[28] = target: Serine/threonine-protein kinase N2 (Homo sapiens) (UniProt Q16513); settings: Compound concentration 100.0 nM
[29] = target: Serine/threonine-protein kinase PRP4 homolog (Homo sapiens) (UniProt Q13523); settings: Compound concentration 100.0 nM
[30] = target: Proto-oncogene tyrosine-protein kinase receptor Ret (Homo sapiens) (UniProt P07949); settings: Compound concentration 100.0 nM
[31] = target: Ribosomal protein S6 kinase alpha-4 (Homo sapiens) (UniProt O75676); settings: Compound concentration 100.0 nM
[32] = target: Ribosomal protein S6 kinase alpha-2 (Homo sapiens) (UniProt Q15349); settings: Compound concentration 100.0 nM
[33] = target: Serine/threonine-protein kinase SBK1 (Homo sapiens) (UniProt Q52WX2); settings: Compound concentration 100.0 nM
[34] = target: Serine/threonine-protein kinase Sgk1 (Homo sapiens) (UniProt O00141); settings: Compound concentration 100.0 nM
Sequence of Serine/threonine-protein kinase Sgk1 (Homo sapiens) (O00141 whole entry): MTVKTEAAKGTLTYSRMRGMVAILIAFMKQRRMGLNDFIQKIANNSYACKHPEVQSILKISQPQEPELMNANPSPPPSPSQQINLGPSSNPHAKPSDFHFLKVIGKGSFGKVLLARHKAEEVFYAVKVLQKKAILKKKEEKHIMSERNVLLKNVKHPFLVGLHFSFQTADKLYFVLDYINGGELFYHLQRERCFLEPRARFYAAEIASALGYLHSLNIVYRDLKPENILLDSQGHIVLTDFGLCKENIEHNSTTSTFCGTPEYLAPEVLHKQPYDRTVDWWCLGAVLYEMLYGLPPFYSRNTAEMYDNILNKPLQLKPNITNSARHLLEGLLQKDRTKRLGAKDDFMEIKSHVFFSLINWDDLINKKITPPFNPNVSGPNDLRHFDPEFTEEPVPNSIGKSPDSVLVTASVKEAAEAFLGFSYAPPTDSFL

[35] = target: Serine/threonine-protein kinase SIK2 (Homo sapiens) (UniProt Q9H0K1); settings: Compound concentration 100.0 nM
[36] = target: Serine/threonine-protein kinase TAO2 (Homo sapiens) (UniProt Q9UL54); settings: Compound concentration 100.0 nM
[37] = target: Tyrosine-protein kinase receptor Tie-1 (Homo sapiens) (UniProt P35590); settings: Compound concentration 100.0 nM
[38] = target: Vascular endothelial growth factor receptor 2 (Homo sapiens) (UniProt P35968); settings: Compound concentration 100.0 nM
[39] = target: Tyrosine-protein kinase Yes (Homo sapiens) (UniProt P07947); settings: Compound concentration 100.0 nM
Sequence of Tyrosine-protein kinase Yes (Homo sapiens) (P07947 2-543 limits assumed): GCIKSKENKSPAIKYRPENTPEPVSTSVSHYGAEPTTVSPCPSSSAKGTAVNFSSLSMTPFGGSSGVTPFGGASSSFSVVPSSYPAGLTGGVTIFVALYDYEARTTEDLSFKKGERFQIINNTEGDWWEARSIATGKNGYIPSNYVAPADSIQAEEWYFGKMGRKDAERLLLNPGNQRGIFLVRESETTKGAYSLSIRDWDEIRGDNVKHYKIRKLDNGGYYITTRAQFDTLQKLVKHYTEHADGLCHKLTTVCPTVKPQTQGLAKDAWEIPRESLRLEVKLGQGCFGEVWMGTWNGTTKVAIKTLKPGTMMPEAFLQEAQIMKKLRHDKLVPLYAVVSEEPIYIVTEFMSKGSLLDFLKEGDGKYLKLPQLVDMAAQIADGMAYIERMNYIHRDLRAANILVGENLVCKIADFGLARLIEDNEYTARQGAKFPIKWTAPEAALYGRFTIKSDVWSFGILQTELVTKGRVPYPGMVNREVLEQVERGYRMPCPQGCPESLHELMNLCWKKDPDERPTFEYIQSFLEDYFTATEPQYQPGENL

[40] = target: 5-hydroxytryptamine receptor 1A (Homo sapiens) (UniProt P08908); settings: Compound concentration 10.0 uM
[41] = target: 5-hydroxytryptamine receptor 2B (Homo sapiens, UniProt P41595); settings: Compound concentration 10.0 uM
[42] = target: GABA-A receptor; anion channel (Rattus norvegicus) (UniProt O09028+P15431+P18506+P18508+P19969+P20236+P23574+P23576+P28471+P28473+P30191+P62813+P63079+P63138+Q91ZM7+Q9ES14); settings: Compound concentration 10.0 uM
[43] = target: Alpha-1D adrenergic receptor (Homo sapiens) (UniProt P25100); settings: Compound concentration 10.0 uM

Sequence of Calcium/calmodulin-dependent protein kinase kinase 2 (Homo sapiens) (Q96RR4 2-588 limits assumed): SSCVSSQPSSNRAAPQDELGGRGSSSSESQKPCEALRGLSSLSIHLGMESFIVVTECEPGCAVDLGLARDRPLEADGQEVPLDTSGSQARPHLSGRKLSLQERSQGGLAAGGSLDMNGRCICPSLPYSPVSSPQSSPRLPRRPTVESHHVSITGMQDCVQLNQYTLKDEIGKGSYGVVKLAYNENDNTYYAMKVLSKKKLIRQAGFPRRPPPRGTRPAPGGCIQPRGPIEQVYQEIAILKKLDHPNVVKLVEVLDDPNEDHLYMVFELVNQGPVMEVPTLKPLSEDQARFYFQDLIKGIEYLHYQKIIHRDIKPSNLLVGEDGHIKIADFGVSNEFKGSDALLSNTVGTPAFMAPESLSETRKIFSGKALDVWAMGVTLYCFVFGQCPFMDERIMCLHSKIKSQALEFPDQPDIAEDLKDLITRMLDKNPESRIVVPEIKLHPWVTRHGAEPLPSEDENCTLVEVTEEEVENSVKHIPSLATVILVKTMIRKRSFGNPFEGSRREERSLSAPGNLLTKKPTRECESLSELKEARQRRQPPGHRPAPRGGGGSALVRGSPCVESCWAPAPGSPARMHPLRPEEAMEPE

Cc1ccc(-c2cnc([C@@]3(O)CC[C@H](C(=O)O)C(C)(C)C3)s2)cc1Nc1cccc(C(F)(F)F)n1 [MRL-SYKi-NC]
active: residual activity [15] 49.8% | residual activity [16] 42% | inhibition [41] 77.9%
inactive: residual activity [1] 84.1% | residual activity [2] 81.9% | residual activity [3] 91.5% | residual activity [4] 95.4% | residual activity [5] 100% | residual activity [6] 69.4% | residual activity [7] 100% | residual activity [8] 67.1% | residual activity [9] 98.5% | residual activity [10] 100% | residual activity [11] 100% | residual activity [12] 100% | residual activity [13] 86.8% | residual activity [14] 97.7% | residual activity [17] 100% | residual activity [18] 95.4% | residual activity [19] 77.3% | residual activity [20] 100% | residual activity [21] 100% | residual activity [22] 93% | residual activity [23] 74.7% | residual activity [24] 89.2% | residual activity [25] 100% | residual activity [26] 100% | residual activity [27] 100% | residual activity [28] 96.3% | residual activity [29] 82.6% | residual activity [30] 100% | residual activity [31] 81.3% | residual activity [32] 100% | residual activity [33] 51.1% | residual activity [34] 64.9% | residual activity [35] 88.9% | residual activity [36] 84.7% | residual activity [37] 86.8% | residual activity [38] 100% | residual activity [39] 100% | inhibition [40] 17.5% | inhibition [42] 19% | inhibition [43] -2.32%

Cc1cc(Nc2nccc(C)n2)cc(-c2cnc([C@@]3(O)CC[C@H](C(=O)O)C(C)(C)C3)s2)c1 [MRL-SYKi]
inactive: residual activity [1] 100% | residual activity [2] 100% | residual activity [3] 69.7% | residual activity [4] 93.3% | residual activity [5] 100% | residual activity [6] 100% | residual activity [7] 65% | residual activity [8] 67.7% | residual activity [9] 100% | residual activity [10] 97.9% | residual activity [11] 100% | residual activity [12] 75.6% | residual activity [13] 100% | residual activity [14] 75.6% | residual activity [15] 80.7% | residual activity [16] 60.9% | residual activity [17] 100% | residual activity [18] 95.4% | residual activity [19] 89.9% | residual activity [20] 74.7% | residual activity [21] 86.2% | residual activity [22] 100% | residual activity [23] 72.7% | residual activity [24] 100% | residual activity [25] 92.4% | residual activity [26] 100% | residual activity [27] 96.9% | residual activity [28] 100% | residual activity [29] 90.3% | residual activity [30] 98.8% | residual activity [31] 100% | residual activity [32] 100% | residual activity [33] 100% | residual activity [34] 100% | residual activity [35] 95.7% | residual activity [36] 97.5% | residual activity [37] 68.1% | residual activity [38] 100% | residual activity [39] 100% | inhibition [40] -0.0778% | inhibition [41] 6.38% | inhibition [42] 25.9% | inhibition [43] -4.92%
